Assay [1] addresses T1, MvicOBP3 (Megoura viciae, UniProt A0A0S2E5N6).
T1 sequence (A0A0S2E5N6 2-122): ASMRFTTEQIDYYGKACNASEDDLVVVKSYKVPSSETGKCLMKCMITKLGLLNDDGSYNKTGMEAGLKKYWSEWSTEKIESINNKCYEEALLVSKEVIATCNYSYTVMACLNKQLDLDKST
Kind of assay: Competitive fluorescence binding assay (NPN displacement). The procedure:
(§1) Proteins were dissolved in 20 mM Tris-HCl buffer pH 7.4 and emission fluorescence spectra were recorded on a LS50 Luminescence Spectrometer (PerkinElmer, Buckinghamshire, UK) at 22 °C in a right angle configuration, with a 1 cm light path quartz cuvette and 5–10 nm slits for excitation and emission. […] The probe was excited at 337 nm and emission spectra were recorded between 380 and 450 nm. […] For determining binding constants, the intensity values corresponding to the maximum fluorescence emission were plotted against free ligand concentrations. We use GraphPad (http://www.graphpad.com/guides/prism/6/curve-fitting/index.htm?reg_one_site_competition_ki.htm) to determine the equilibrium dissociation constant Ki of ligand by measuring its competition for NPN and nonlinear regression curve fitting to the one site competitive binding model. This model fits the Ki of the ligand directly using the fixed concentration of NPN and the dissociation constant for NPN KNPN obtained from a direct fluorescence titration and nonlinear regression curve fitting to one site binding model Y = Bmax*X/(KNPN + X) + NS*X (X is the NPN concentration, Bmax is the maximum specific binding in the same units as Y, NS is the slope of nonspecific binding in Y units divided by X units). The corrected Ki is fitted directly rather than fitting an IC50 and modifying it with the Cheng and Prusoff equation[48]. The analysis assumes that the protein has one binding site and 100% active, and that the binding is reversible and at equilibrium. Tested compounds were EβF (Bedoukian Research, Danbury, CT, USA), β-pinene, (−)-α-pinene and (+)-limonene (Sigma, St. Louis, MO).

Assay [2] has as its target T2, NribOBP3 (Nasonovia ribisnigri, UniProt A0A0M4AUH6).
T2 sequence (A0A0M4AUH6 1-119): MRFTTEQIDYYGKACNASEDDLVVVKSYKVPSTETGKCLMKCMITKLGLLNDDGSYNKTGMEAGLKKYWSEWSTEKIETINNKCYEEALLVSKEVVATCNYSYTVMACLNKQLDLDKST
The assay is described as above. The procedure: as §1

For assay [3], the target named is T1, MvicOBP3. As to the kind of experiment: Direct fluorescence titration of the probe NPN. Type of assay: binding. The conditions noted are these: recombinant MvicOBP3, 2 μM protein, 20 mM Tris-HCl pH 7.4, 22 °C; read-out: Kd of fluorescent probe NPN. The procedure:
as §1, with “The analysis assumes that the protein has one binding site and 100% active, and that the binding is reversible and at equilibrium. Tested compounds were EβF (Bedoukian Research, Danbury, CT, USA), β-pinene, (−)-α-pinene and (+)-limonene (Sigma, St. Louis, MO).” left out

Assay [4] addresses T2, NribOBP3. Kind of assay: Direct fluorescence titration of the probe NPN. Type of assay: binding. The conditions noted are these: recombinant NribOBP3, 2 μM protein, 20 mM Tris-HCl pH 7.4, 22 °C; read-out: Kd of fluorescent probe NPN. The procedure: as §1, with “The analysis assumes that the protein has one binding site and 100% active, and that the binding is reversible and at equilibrium. Tested compounds were EβF (Bedoukian Research, Danbury, CT, USA), β-pinene, (−)-α-pinene and (+)-limonene (Sigma, St. Louis, MO).” left out

Setting [5] is: displacement of NPN (2 μM) from MvicOBP3/NPN complex, one site competitive binding model, read-out: Competitive inhibitor binding constant (Ki).
The mark [6] stands for this setting: displacement of NPN (2 μM) from NribOBP3/NPN complex, one site competitive binding model, read-out: Competitive inhibitor binding constant (Ki).

This passage reports Ki and Kd results from PMC4840437, “Crystal Structures and Binding Dynamics of Odorant-Binding Protein 3 from two aphid species Megoura viciae and Nasonovia ribisnigri” (Scientific Reports, 2016).

Read-outs that look alike come from different tables or passages of the source.

Regarding `C=C(C)C1CC=C(C)CC1` (single isomer, unassigned; (+)) [(+)-limonene], the Ki on MvicOBP3 [1] (setting [5]) is 2.5 µM.
For `C=CC(=C)CC/C=C(\C)CCC=C(C)C` [(E)-β-farnesene], the values for the Ki on MvicOBP3 [1] (setting [5]) and at NribOBP3 [2] (setting [6]) were 0.1 µM and 5.2 µM, respectively.
For `CC1=CCC2CC1C2(C)C` (stereo not drawn) [(−)-α-pinene], the Ki on MvicOBP3 [1] (setting [5]) is 1.8 µM; on NribOBP3 [2] (setting [6]), 20.2 µM.
With `c1ccc(Nc2cccc3ccccc23)cc1` [NPN, N-phenyl-1-naphthylamine], the Kd on MvicOBP3 [3] stood at 1.9 µM; at NribOBP3 [4], 9 µM.
For `C=C1CCC2CC1C2(C)C` (stereo not drawn) [β-pinene], the Ki worked out at 2.3 µM on MvicOBP3 [1] and 30.7 µM at NribOBP3 [2].

What is called Ki is a measure of affinity in units of concentration, obtained from inhibition or displacement. Usually Kd stands for the concentration at which binding is half-saturated.
